Assays:
Tyk2 = Tyk2 (Homo sapiens, UniProt P29597); details: recorded in PCT/CN2021/134929; cited from earlier work
[1] = Hygroscopicity by dynamic moisture adsorption and desorption (DVS); type: physicochemical; details: humidity 50%-95%-0%-50%
[2] = Solid-state stability by XRPD under stress, accelerated and room-temperature conditions; type: physicochemical; details: high temperature (60°C), high humidity (25°C/92.5%RH), accelerated (40°C/75%RH), room temperature (25°C/60%RH), open
[3] = Thermodynamic stability by competitive slurry, XRPD (Example 34); type: physicochemical; details: suspended in saturated acetonitrile or MTBE solution, equal amounts of form E and form AH, 6 days
[4] = Crystal form by XRPD after DVS; type: physicochemical; details: humidity 50%-95%-0%-50%
[5] = light not given in the conclusion

Tyk2, sequence (P29597 whole entry, species assumed): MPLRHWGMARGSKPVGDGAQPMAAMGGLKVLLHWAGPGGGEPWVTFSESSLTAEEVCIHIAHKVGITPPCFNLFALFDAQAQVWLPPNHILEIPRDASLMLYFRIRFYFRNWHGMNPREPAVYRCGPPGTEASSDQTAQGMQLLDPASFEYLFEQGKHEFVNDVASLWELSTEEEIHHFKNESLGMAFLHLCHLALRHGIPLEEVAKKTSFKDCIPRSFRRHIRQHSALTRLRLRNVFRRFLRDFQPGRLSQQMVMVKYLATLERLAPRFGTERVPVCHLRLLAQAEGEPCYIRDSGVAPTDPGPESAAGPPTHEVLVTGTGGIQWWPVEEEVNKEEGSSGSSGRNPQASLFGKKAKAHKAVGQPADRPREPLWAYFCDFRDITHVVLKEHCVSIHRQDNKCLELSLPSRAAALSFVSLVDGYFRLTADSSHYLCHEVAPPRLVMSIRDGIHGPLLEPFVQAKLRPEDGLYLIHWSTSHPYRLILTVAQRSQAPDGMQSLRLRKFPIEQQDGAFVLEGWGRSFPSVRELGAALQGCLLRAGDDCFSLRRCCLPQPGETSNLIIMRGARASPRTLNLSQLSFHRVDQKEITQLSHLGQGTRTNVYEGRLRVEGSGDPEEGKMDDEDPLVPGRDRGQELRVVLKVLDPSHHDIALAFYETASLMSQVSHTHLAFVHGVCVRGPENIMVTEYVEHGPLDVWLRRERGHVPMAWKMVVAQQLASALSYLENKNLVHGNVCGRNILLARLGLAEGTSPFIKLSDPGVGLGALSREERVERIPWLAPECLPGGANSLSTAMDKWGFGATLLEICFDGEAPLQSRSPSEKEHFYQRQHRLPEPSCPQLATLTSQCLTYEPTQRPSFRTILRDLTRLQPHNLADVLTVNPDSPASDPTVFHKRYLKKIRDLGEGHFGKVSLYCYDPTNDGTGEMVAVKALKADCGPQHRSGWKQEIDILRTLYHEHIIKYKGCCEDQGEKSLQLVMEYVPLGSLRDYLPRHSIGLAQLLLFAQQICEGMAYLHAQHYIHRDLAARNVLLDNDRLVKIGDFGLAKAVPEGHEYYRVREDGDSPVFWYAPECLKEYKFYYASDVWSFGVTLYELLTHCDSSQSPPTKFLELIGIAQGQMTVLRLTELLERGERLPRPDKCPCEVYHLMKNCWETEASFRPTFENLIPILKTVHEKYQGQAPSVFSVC

| SMILES | Tyk2 selective inhibitory activity (Tyk2) | hygroscopicity [1] | stability [2, 5] | thermodynamic stability [3] | crystalline transformation before and after the DVS test [4] | stability ([2]; light (25°C/4500Lux)) |
| --- | --- | --- | --- | --- | --- | --- |
| CCONC(=O)c1cnc(Nc2cc(C)nc(C)n2)cc1Nc1cccc(-c2ncccn2)c1OC [compound represented by formula (I), 6-(((2,6-二甲基嘧啶-4-基)氨基)-N-乙氧基-4-((2-甲氧基-3-(嘧啶-2-基)苯基)氨基)烟酰胺] | excellent Tyk2 selective inhibitory activity | – | – | – | – | – |
| CCONC(=O)c1cnc(Nc2cc(C)nc(C)n2)cc1Nc1cccc(-c2ncccn2)c1OC [unsolvated crystalline form E] | – | no hygroscopicity | remains stable | higher stability than Form AH | does not undergo a crystalline transformation | – |
| CCONC(=O)c1cnc(Nc2cc(C)nc(C)n2)cc1Nc1cccc(-c2ncccn2)c1OC.O=C(O)CC(O)(CC(=O)O)C(=O)O [citric acid eutectic crystal form Type A] | – | almost no hygroscopicity | remains stable | – | did not crystallize before and after the DVS test. type transformation | – |
| CCONC(=O)c1cnc(Nc2cc(C)nc(C)n2)cc1Nc1cccc(-c2ncccn2)c1OC.O=C(O)CC(O)C(=O)O [malic acid eutectic crystal form Type A] | – | slightly hygroscopic | remains stable | – | did not crystallize before and after the DVS test. type transformation | – |
| CCONC(=O)c1cnc(Nc2cc(C)nc(C)n2)cc1Nc1cccc(-c2ncccn2)c1OC.O=C(O)/C=C\C(=O)O [maleate crystal form Type A] | – | extremely hygroscopic | remains stable | – | does not undergo crystalline transformation | – |
| CCONC(=O)c1cnc(Nc2cc(C)nc(C)n2)cc1Nc1cccc(-c2ncccn2)c1OC [unsolvated crystalline form AH] | – | has hygroscopicity | – | – | did not undergo a crystalline transformation | remains stable |
